Test results: ChEMBL document CHEMBL1201862, “PubChem BioAssay data set” (2004)
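Exposure lasted 48 hours, with cells grown in 96-well plates and compounds tested at five concentrations. GI50: concentration for 50% inhibition of growth.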 The source made the active and inactive calls. Rule as the data show it: active = GI50 up to about 1.1 µM and inactive = higher.

Columns and labels:
Assay in all cases: NCI anticancer screen, dose series, 48 h
[1] = system: SF-295
[2] = system: RXF 393
[3] = system: KM12
[4] = system: RPMI-8226
[5] = system: M14
[6] = system: CAKI-1
[7] = system: T47D
[8] = system: SK-OV-3
[9] = system: PC-3
[10] = system: MDA-MB-231
[11] = system: SK-MEL-5
[12] = system: SNB-75
[13] = system: TK-10
[14] = system: SN12C
[15] = system: DU-145
[16] = system: IGROV-1
[17] = system: NCI-H226
[18] = system: SF-268
[19] = system: SR
[20] = system: SNB-19
[21] = system: NCI-H23
[22] = system: HL-60
[23] = system: MDA-N
[24] = system: SK-MEL-28
[25] = system: BT-549
[26] = system: CCRF-CEM
[27] = system: HCT-116
[28] = system: HOP-62
[29] = system: HT-29
[30] = system: Hs-578T
[31] = system: A549
[32] = system: SK-MEL-2
[33] = system: Malme-3M
[34] = system: HCT-15
[35] = system: NCI-H460
[36] = system: MCF7
[37] = system: OVCAR-8
[38] = system: OVCAR-4
[39] = system: A498
[40] = system: 786-0
[41] = system: K562
[42] = system: SW-620
[43] = system: UACC-62
[44] = system: NCI/ADR-RES
[45] = system: COLO 205
[46] = system: NCI-H522
[47] = system: UACC-257
[48] = system: ACHN
[49] = system: EKVX
[50] = system: MDA-MB-435
[51] = system: HCC 2998
[52] = system: MOLT-4
[53] = system: OVCAR-5
[54] = system: HOP-92
[55] = system: UO-31
[56] = system: OVCAR-3
[57] = system: SF-539
[58] = system: U-251
[59] = system: LOX IMVI

Question: What does the source list for `CCOP(=O)(OCC)/C(C#N)=C/c1cccn1N(C)C`?
Answer: GI50 [1]: > 100 µM (inactive); GI50 [2]: > 100 µM (inactive); GI50 [3]: > 100 µM (inactive); GI50 [4]: > 100 µM (inactive); GI50 [5]: > 100 µM (inactive); GI50 [6]: > 100 µM (inactive); GI50 [7]: 47.6 µM (inactive); GI50 [8]: > 100 µM (inactive); GI50 [9]: > 100 µM (inactive); GI50 [10]: > 100 µM (inactive); GI50 [11]: 51.6 µM (inactive); GI50 [12]: > 100 µM (inactive); GI50 [13]: > 100 µM (inactive); GI50 [14]: > 100 µM (inactive); GI50 [15]: 0.144 µM (active); GI50 [16]: > 100 µM (inactive); GI50 [17]: > 100 µM (inactive); GI50 [18]: > 100 µM (inactive); GI50 [19]: > 100 µM (inactive); GI50 [20]: > 100 µM (inactive); GI50 [21]: > 100 µM (inactive); GI50 [22]: > 100 µM (inactive); GI50 [23]: 0.0356 µM (active); GI50 [24]: > 100 µM (inactive); GI50 [25]: 62.2 µM (inactive); GI50 [26]: > 100 µM (inactive); GI50 [27]: 3.37 µM (inactive); GI50 [28]: > 100 µM (inactive); GI50 [29]: > 100 µM (inactive); GI50 [30]: > 100 µM (inactive); GI50 [31]: > 100 µM (inactive); GI50 [32]: > 100 µM (inactive); GI50 [33]: > 100 µM (inactive); GI50 [34]: > 100 µM; GI50 [35]: > 100 µM (inactive); GI50 [36]: > 100 µM (inactive); GI50 [37]: > 100 µM (inactive); GI50 [38]: > 100 µM (inactive); GI50 [39]: > 100 µM (inactive); GI50 [40]: > 100 µM (inactive); GI50 [41]: > 100 µM (inactive); GI50 [42]: > 100 µM (inactive); GI50 [43]: > 100 µM (inactive); GI50 [44]: > 100 µM (inactive); GI50 [45]: > 100 µM (inactive); GI50 [46]: > 100 µM (inactive); GI50 [47]: > 100 µM (inactive); GI50 [48]: > 100 µM (inactive); GI50 [49]: > 100 µM (inactive); GI50 [50]: > 100 µM (inactive); GI50 [51]: > 100 µM (inactive); GI50 [52]: > 100 µM (inactive); GI50 [53]: > 100 µM (inactive); GI50 [54]: > 100 µM (inactive); GI50 [55]: > 100 µM (inactive); GI50 [56]: > 100 µM (inactive); GI50 [57]: > 100 µM (inactive); GI50 [58]: > 100 µM (inactive); GI50 [59]: > 100 µM (inactive)

Question: `C=C(C(=O)O[C@H]1C(=O)C2=C(C)CCC3C(=C)C(=O)O[C@@H]3C2[C@]1(C)O)C1CC[C@]2(C)CCCC(=C)[C@H]2C1` (stereo partly drawn) was tested. Which GI50 [1] did it give?
Answer: 15.5 µM (inactive)

Question: What about the GI50 [2] of the same molecule?
Answer: 0.0246 µM (active)

Question: What about the GI50 [3] of the same molecule?
Answer: 6.85 µM (inactive)

Question: What about the GI50 [4] of the same molecule?
Answer: 3.46 µM (inactive)

Question: And the GI50 [5]?
Answer: 7.62 µM (inactive)

Question: And the GI50 [6]?
Answer: 8.71 µM (inactive)

Question: What about the GI50 [7] of the same molecule?
Answer: 4.25 µM (inactive)

Question: What about the GI50 [8] of the same molecule?
Answer: 16.9 µM (inactive)

Question: And the GI50 [9]?
Answer: 5.45 µM (inactive)

Question: What about the GI50 [10] of the same molecule?
Answer: 5.78 µM (inactive)

Question: And the GI50 [11]?
Answer: 12.2 µM (inactive)

Question: And the GI50 [12]?
Answer: 0.327 µM (active)

Question: And the GI50 [13]?
Answer: 2.55 µM (inactive)

Question: And the GI50 [14]?
Answer: 2.48 µM (inactive)

Question: And the GI50 [15]?
Answer: 4.72 µM (inactive)

Question: What about the GI50 [16] of the same molecule?
Answer: 4.62 µM (inactive)

Question: And the GI50 [17]?
Answer: 17.1 µM (inactive)

Question: And the GI50 [18]?
Answer: 5.6 µM (inactive)

Question: What about the GI50 [19] of the same molecule?
Answer: 7.4 µM (inactive)

Question: And the GI50 [20]?
Answer: 13.1 µM (inactive)

Question: What about the GI50 [21] of the same molecule?
Answer: 7.35 µM (inactive)

Question: What about the GI50 [22] of the same molecule?
Answer: 2 µM (inactive)

Question: And the GI50 [23]?
Answer: 2.71 µM (inactive)

Question: What about the GI50 [24] of the same molecule?
Answer: 5.92 µM (inactive)

Question: What about the GI50 [25] of the same molecule?
Answer: 5.04 µM (inactive)

Question: And the GI50 [26]?
Answer: < 0.01 µM (active)

Question: And the GI50 [27]?
Answer: 3.28 µM (inactive)

Question: And the GI50 [28]?
Answer: 8.32 µM (inactive)

Question: What about the GI50 [29] of the same molecule?
Answer: 4.24 µM (inactive)

Question: And the GI50 [30]?
Answer: 4.61 µM (inactive)

Question: And the GI50 [31]?
Answer: 8.89 µM (inactive)

Question: And the GI50 [32]?
Answer: 8.45 µM (inactive)

Question: What about the GI50 [33] of the same molecule?
Answer: 8.83 µM (inactive)

Question: What about the GI50 [34] of the same molecule?
Answer: 3.48 µM

Question: And the GI50 [35]?
Answer: 3.16 µM (inactive)

Question: And the GI50 [36]?
Answer: 3.32 µM (inactive)

Question: And the GI50 [37]?
Answer: 4.36 µM (inactive)

Question: And the GI50 [38]?
Answer: 5.36 µM (inactive)

Question: And the GI50 [39]?
Answer: 10.7 µM (inactive)

Question: What about the GI50 [40] of the same molecule?
Answer: 1.88 µM (inactive)

Question: What about the GI50 [41] of the same molecule?
Answer: 6.11 µM (inactive)

Question: And the GI50 [42]?
Answer: 7.46 µM (inactive)

Question: What about the GI50 [43] of the same molecule?
Answer: 1.9 µM (inactive)

Question: What about the GI50 [44] of the same molecule?
Answer: 7.38 µM (inactive)

Question: And the GI50 [45]?
Answer: 8.77 µM (inactive)

Question: What about the GI50 [46] of the same molecule?
Answer: 3.53 µM (inactive)

Question: And the GI50 [47]?
Answer: 4.25 µM (inactive)

Question: What about the GI50 [48] of the same molecule?
Answer: 4.58 µM (inactive)

Question: What about the GI50 [49] of the same molecule?
Answer: 7.98 µM (inactive)

Question: What about the GI50 [50] of the same molecule?
Answer: 3.35 µM (inactive)

Question: What about the GI50 [51] of the same molecule?
Answer: 1.91 µM (inactive)

Question: And the GI50 [52]?
Answer: 2.21 µM (inactive)

Question: What about the GI50 [53] of the same molecule?
Answer: 17.7 µM (inactive)

Question: What about the GI50 [54] of the same molecule?
Answer: 5.08 µM (inactive)

Question: And the GI50 [55]?
Answer: 6.34 µM (inactive)

Question: What about the GI50 [56] of the same molecule?
Answer: 4.75 µM (inactive)

Question: And the GI50 [57]?
Answer: 4.1 µM (inactive)

Question: And the GI50 [58]?
Answer: 4.94 µM (inactive)

Question: What about the GI50 [59] of the same molecule?
Answer: 3.18 µM (inactive)
